From US8114410B2, “Composition and methods for the inhibition of membrane fusion by paramyxoviruses” (priority 2001, dated 2012)

Legend:
[1] = test system: HeV-mediated fusion (HeLa cells expressing HeV F and G, U373 target cells)
[2] = test system: NiV-mediated fusion (HeLa cells expressing NiV F and G, U373 target cells)

`CC[C@H](C)[C@H](NC(=O)[C@H](Cc1ccc(O)cc1)NC(=O)[C@H](CC(=O)O)NC(=O)[C@H](CCCCN)NC(=O)[C@H](CO)NC(=O)[C@H](CCC(N)=O)NC(=O)[C@H](CCC(N)=O)NC(=O)[C@H](CC(C)C)NC(=O)[C@H](CO)NC(=O)[C@H](CCC(N)=O)NC(=O)[C@H](CC(N)=O)NC(=O)[C@H](CCSC)NC(=O)[C@H](CO)NC(=O)[C@H](CO)NC(=O)[C@@H](NC(=O)[C@H](CCC(N)=O)NC(=O)[C@H](CO)NC(=O)[C@H](CO)NC(=O)[C@@H](NC(=O)[C@H](CC(=O)O)NC(=O)[C@@H](NC(=O)[C@H](CCCCN)NC(=O)[C@H](CC(=O)O)NC(=O)[C@@H](NC(=O)[C@H](Cc1ccccc1)NC(=O)[C@@H](NC(=O)[C@@H]1CCCN1C(=O)[C@@H]1CCCN1)C(C)C)[C@@H](C)O)C(C)C)[C@@H](C)CC)[C@@H](C)CC)C(=O)N[C@@H](CCCCN)C(=O)N[C@@H](CCC(=O)O)C(=O)N[C@@H](C)C(=O)N[C@@H](CCC(N)=O)C(=O)N[C@@H](CCCNC(=N)N)C(=O)N[C@@H](CC(C)C)C(=O)N[C@@H](CC(C)C)C(=O)N[C@@H](CC(=O)O)C(=O)N[C@H](C(=O)N[C@H](C(=O)N[C@@H](CC(N)=O)C(=O)N1CCC[C@H]1C(=O)N[C@@H](CO)C(=O)N[C@@H](CC(C)C)C(=O)O)C(C)C)[C@@H](C)O` [NiV FC1] was tested, and the IC50 [1] was 5.2 to 5.8 nM, the “Inhibition of HeV-mediated fusion (in words)” value [1] was “completely inhibitory in the nM range” and the IC50 [2] was 5.2 to 5.8 nM. For the same molecule, the “Inhibition of NiV-mediated fusion (in words)” value [2] was “completely inhibitory in the nM range”.
